Data published in US9718817B2, “Aryl and heteroaryl ether compounds as ROR gamma modulators” (Glenmark Pharmaceuticals S.A., priority 2014, dated 2017).

Biological target: T1, GST-tagged ROR gamma ligand binding domain (LBD) (Homo sapiens, UniProt P51449)
T1 construct: purchased Invitrogen
T1 sequence (P51449 269-508 limits assumed): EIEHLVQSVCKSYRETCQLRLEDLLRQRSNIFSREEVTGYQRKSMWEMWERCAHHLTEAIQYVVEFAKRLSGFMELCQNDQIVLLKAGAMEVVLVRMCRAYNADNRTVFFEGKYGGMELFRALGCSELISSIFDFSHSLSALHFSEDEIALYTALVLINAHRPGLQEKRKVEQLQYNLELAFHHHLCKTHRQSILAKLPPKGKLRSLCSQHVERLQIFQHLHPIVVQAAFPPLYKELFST
Assay: TR-FRET assay for ROR gamma (LanthaScreen co-activator peptide recruitment)
Format: biochemical
Details: for inhibition at 1 µM: compound 1 μM; for inhibition at 1 µM / inhibition at 10 µM: TR-FRET ratio 520/495, percent of control; for inhibition at 10 µM: compound 10 μM; for IC50: class symbols, from dose response curve
From the text: The compounds described herein were screened for ROR gamma modulator activity using the TR-FRET assay by Lantha Screen as described in JBC 2011, 286, 26: 22707-10; and Drug Metabolism and Disposition 2009, 37, 10: 2069-78.
The assay is based on the principle that binding of the agonist to the ROR gamma causes a conformational change around helix 12 in the ligand binding domain, resulting in higher affinity for the co-activator peptide. ROR gamma being constitutively active, the Fluorescein-D22 co-activator peptide used in the assay is recruited in the absence of a ligand. Binding of the co-activator peptide, causes an increase in the TR-FRET signal while binding of an antagonist decreases the recruitment of the co-activator peptide, causing a decrease in the TR-FRET signal compared to control with no compound. The assay was performed using a two-step procedure, pre-incubation step with the compound followed by the detection step on addition of the anti-GST tagged terbium (Tb) and fluorescein tagged fluorophores as the acceptor.
Test compounds or reference compounds such as T0901317 (Calbiochem) were dissolved in dimethylsulfoxide (DMSO) to prepare 10.0 mM stock solutions and diluted to the desired concentration. The final concentration of DMSO in the reaction was 4% (v/v). The assay mixture was prepared by mixing 10 nM of the GST-tagged ROR gamma ligand binding domain (LBD) in the assay buffer containing 25 mM HEPES (pH 7.4), 100 mM NaCl, 5 mM DTT and 0.01% BSA with or without the desired concentration of the compound. The reaction was incubated at 22° C. for 1 hour. The pre-incubation step was terminated by addition of the detection mixture containing 300 nM Fluorescein-D22 co-activator peptide and 10 nM lantha screen Tb-anti GST antibody into the reaction mixture. After shaking for 5 minutes the reaction was further incubated for 1 hour at room temperature and read at 4° C. on an Infinite F500 reader as per the kit instructions (Invitrogen). The inhibition of test compound was calculated based on the TR-FRET ratio of 520/495. The activity was calculated as a percent of control reaction. IC50 values were calculated from dose response curve by nonlinear regression analysis using GraphPad Prism software.
Percentage inhibition at concentrations of 1.0 μM and 10.0 μM are given in the table along with IC50 (nM) details for selected examples.

Row | SMILES | inhibition at 1 µM [%] | inhibition at 10 µM [%] | IC50 [nM]
1 | CCS(=O)(=O)c1ccc(CC(=O)Nc2ccc(OC3(c4ccc(C(F)(F)F)c(F)c4)COC3)cc2)cc1 [Example 48, (4-Ethanesulfonyl-phenyl)-N-{4-[3-(3-fluoro-4-trifluoromethyl-phenyl)-oxetan-3-yloxy]-phenyl}-acetamide] | 60.3 | 77.4 | –
2 | CCS(=O)(=O)c1ccc(CC(=O)Nc2ccc(OC3(c4ccc(Cl)c(Cl)c4)CC3)cc2)cc1 [Example 49, N-{4-[1-(3,4-Dichloro-phenyl)-cyclopropoxy]-phenyl}-2-(4-ethanesulfonyl-phenyl)-acetamide] | 69.1 | 80 | 50 to 100
3 | CCS(=O)(=O)c1ccc(CC(=O)Nc2ccc(OC3(c4ccc(Cl)c(F)c4)CC3)cc2)cc1 [Example 50, N-{4-[1-(4-Chloro-3-fluoro-phenyl)-cyclopropoxy]-phenyl}-2-(4-ethanesulfonyl-phenyl)-acetamide] | 81.3 | 87.9 | < 50
4 | CCS(=O)(=O)c1ccc(CC(=O)Nc2ccc(OC3(c4ccc(Cl)cc4F)CC3)cc2)cc1 [Example 51, N-{4-[1-(4-Chloro-2-fluoro-phenyl)-cyclopropoxy]-phenyl}-2-(4-ethanesulfonyl-phenyl)-acetamide] | 85.9 | 87.7 | < 50
5 | CCS(=O)(=O)c1ccc(CC(=O)Nc2ccc(OC3(c4ccc(Cl)c(F)c4)CC3)nc2)cc1 [Example 52, N-{6-[1-(4-Chloro-3-fluoro-phenyl)-cyclopropoxy]-pyridin-3-yl}-2-(4-ethanesulfonyl-phenyl)-acetamide] | 63.7 | 83.8 | –
6 | CCS(=O)(=O)c1ccc(CC(=O)Nc2ccc(OC3(c4ccc(Cl)c(Cl)c4)CC3)nc2)cc1 [Example 53, N-{6-[1-(3,4-Dichloro-phenyl)-cyclopropoxy]-pyridin-3-yl}-2-(4-ethanesulfonyl-phenyl)-acetamide] | 52.6 | 76.5 | –
7 | CCS(=O)(=O)c1ccc(CC(=O)Nc2ccc(OC3(c4ccc(Cl)c(F)c4)CCC3)nc2)cc1 [Example 54, N-{6-[1-(4-Chloro-3-fluoro-phenyl)-cyclobutoxy]-pyridin-3-yl}-2-(4-ethanesulfonyl-phenyl)-acetamide] | 92 | 93.7 | < 50
8 | CCS(=O)(=O)c1ccc(CC(=O)Nc2ccc(OC3(c4ccc(Cl)c(F)c4)CCOCC3)nc2)cc1 [Example 55, N-{6-[4-(4-Chloro-3-fluoro-phenyl)-tetrahydro-pyran-4-yloxy]-pyridin-3-yl}-2-(4-ethanesulfonyl-phenyl)-acetamide] | 75.5 | 80.3 | –
9 | CCS(=O)(=O)c1ccc(CC(=O)Nc2ccc(OC(C)(C)c3ccc(Cl)cc3F)nc2)cc1 [Example 56, N-{6-[1-(4-Chloro-2-fluoro-phenyl)-1-methyl-ethoxy]-pyridin-3-yl}-2-(4-ethanesulfonyl-phenyl)-acetamide] | 83.1 | 91.3 | < 50
10 | CCS(=O)(=O)c1ccc(CC(=O)Nc2ccc(OC(C)(C)c3ccc(F)cc3Cl)nc2)cc1 [Example 57, N-{6-[1-(2-Chloro-4-fluoro-phenyl)-1-methyl-ethoxy]-pyridin-3-yl}-2-(4-ethanesulfonyl-phenyl)-acetamide] | 78 | 91.3 | 50 to 100
11 | CCS(=O)(=O)c1ccc(CC(=O)Nc2ccc(OC(C)(C)c3ccc(Cl)cc3Cl)nc2)cc1 [Example 58, N-(6-{[2-(2,4-Dichlorophenyl)propan-2-yl]oxy}pyridin-3-yl)-2-[4-(ethylsulfonyl)phenyl]acetamide] | 83.7 | 86.7 | < 50
12 | CCS(=O)(=O)c1ccc(CC(=O)Nc2ccc(OC(C)(C)c3ccc(Cl)c(Cl)c3)nc2)cc1 [Example 59, N-{6-[1-(3,4-Dichloro-phenyl)-1-methyl-ethoxy]-pyridin-3-yl}-2-(4-ethanesulfonyl-phenyl)-acetamide] | 71.8 | 86.7 | < 50
